From paper PMC5190074, “BET inhibition as a new strategy for the treatment of gastric cancer” (Oncotarget, 2016)

Target: T1, BRD4(1), first bromodomain of BRD4 (Homo sapiens, UniProt O60885)
T1 construct: first bromodomain; BRD4_HUMAN O60884-1 fragment 44-168 (crystallography)
Assay: biochemical
Parameters: thermal shift assay, SAR of isoxazole compounds against BRD4(1)
Conditions: read-out: ΔTm Shift (oC)
Protocol: The recombinant bromodomains at 2 μM were mixed with 10 μM inhibitors. The assays and data evaluation for melting temperatures were performed using a Real-Time PCR Mx3005p machine (Stratagene) and the protocols previously described. Experiments profiling the final compound (PNZ5) were performed in quadruplicates. Isoxazoles have been explored previously as BET bromodomain inhibitors. We have developed PNZ5, a new isoxazole-based inhibitor originating from the lead compound S1 (Figure 1). PNZ5 was developed as the result of a structure-based lead optimisation program. Dihydroindene S1 was identified as a ligand against BRD4(1) (pIC50 5.9). Investigation of the co-crystal structure of S1 with BRD4(1) [PDB ID 4GPJ] identified a number of positions for potential optimisation: addition of a carbonyl group at C-3 was envisaged to benefit from hydrogen-bonds (H-bonds) to a network of conserved water molecules; replacement of C-2 with a nitrogen would minimise interactions in the narrow ZA channel of BRD4(1) and N-substitution could provide further binding interactions with the protein; and alternative substitution of the hydroxyl at C-1 would provide a handle for further optimisation. […] The three best compounds, S3, S5 and S7, were destined to be separated into their component enantiomers for further evaluation (Supplementary Table 2). […]

- ΔTm at 10 µM: 10.1 °C
SMILES: Cc1noc(C)c1-c1ccc2c(c1)C(c1ccccc1)N(C)C2=O (racemic) [S3]
